Experimental findings from US10106529B2, “Compounds that modulate intracellular calcium” (CalciMedica, Inc., priority 2011, dated 2018) are described below.

In one assay the target is T1, Orai1/STIM1 (Homo sapiens, UniProt Q96D31).
T1 construct: c-myc (C); expressed in transfected cells; host or cells: HEK-293 cells stably expressing recombinant human STIM1 and Orai1
Kind of assay: Fluorescence-based assay of store-operated calcium entry in Orai1/STIM1 stable cells. On the set-up: key to Orai1/STIM1 (IC50, μmol): A, IC50 < 0.6 μM; B, IC50 = 0.6-1.2 μM; C, IC50 > 1.2 μM; — no fit. It counts as cell-based. Particulars: HEK-293 cells stably expressing human STIM1 and Orai1, inhibition of Peak-Basal fluorescence signal after calcium addition; for IC50: read-out: Orai1/STIM1 (IC50, μmol). From the text:
(§1) Fluorescence-based assays are used for screening the compounds described herein, such as compounds of Formulas (I), (IA), (II), (IIA), (III), (IIIA), (IV), (IVA), (V), (VA), (VI), (VIA), (VII), (VIIA), (VIII), (VIIIA), (IX), (IXA), (X), (XI), (XIA), (XII), or (XIIA) which modulate intracellular calcium.
A. Fluorescence-Based Assay of Store-Operated Calcium Entry in Orai1/STIM1 Stable Cells.
Cells stably expressing recombinant human STIM1 and Orai1 are generated by transfecting a human Orai1 expression plasmid (pcDNA3.1-Orai1-cmyc) into HEK-293 cells stably overexpressing human STIM1 (Roos et al. 2005 JCB 169(3): 435-445). Colonies of cells stably expressing both STIM1 and Orai1 proteins are selected and then subcloned by limiting dilution. Cells were cultured at 37° C./6% CO2 in complete medium with 10% FBS and appropriate selection markers.
The day prior to performing the assay Orai1/STIM1 stable cells are plated in 50 μL of complete medium at 90-95% confluence in a 384 well plate. Cells are grown at 37° C./6% CO2 overnight. On the day of the assay, 1.5 μM fluo-4-AM (Invitrogen) in complete medium is added to the cells, which are then incubated for 1 hour at RT. Cells are washed once in Ca^2+-free HBSS (Hank's buffered saline solution) and 35 μl of Ca^2+-free HBSS is added to each well. Test compounds are added to wells in a 10 μL Ca^2+-free HBSS solution, prepared at 4.5× the desired final concentration, and incubated for 30 minutes at RT. The initial baseline fluorescence signal is then measured with a FLIPR^384 (Molecular Devices) plate reader. Calcium entry is initiated by adding 5 μl of 10×CaCl2 (10 mM) in HBSS, and changes in cellular fluorescence are measured with the FLIPR^384 plate reader. In each well, the magnitude of the fluorescence signal as a result of calcium entry into the cell is determined by calculating the difference between the peak fluorescence signal measured after calcium addition and the initial baseline fluorescence signal (designated Peak-Basal). IC50 values are typically calculated as the concentration that inhibited 50% of the Peak-Basal signal.

In another assay the test system is RBL-2H3 cells. The assay can be described thus: Fluorescence-based assay of store-operated calcium entry in RBL-2H3 cells. It counts as cell-based, rat. Particulars: Rattus norvegicus, thapsigargin, inhibition of Upslope of fluorescence after calcium addition, read-out: RBL-2H3 (IC50, μmol). As for the experimental part:
as §1
B. Fluorescence-Based Assay of Store-Operated Calcium Entry in RBL-2H3 Cells.
RBL-2H3 cells are obtained from ATCC and maintained in complete medium with 10% FBS at 37° C./6% CO2.
The day prior to performing the assay, RBL-2H3 cells are plated in 50 μL of complete medium in a 384 well plate. Cells are grown at 37° C./6% CO2 overnight and grow to 50-60% confluence by the next day. On the assay day, 1.5 µM Fluo-4-AM dye (Invitrogen) in complete medium is added and incubated for 1 hour at RT. Cells are washed twice in Ca^2+-free HBSS buffer and 35 μL Ca^2+-free HBSS buffer is added to each well. 10 μL of a test compound prepared in a Ca^2+-free HBSS solution at 4.5× of the desired concentration is added to a well and incubated for 5 minutes at RT. 10 μL of thapsigargin prepared in a Ca^2+-free HBSS solution at 5.5× of the desired concentration (5.5 uM) is added to each well and incubated for an additional 25 minutes. The initial baseline fluorescence signal is measured with a FLIPR^384 (Molecular Devices) plate reader. 5 μL of 12× calcium in HBSS (12 mM) is added and changes in cellular fluorescence are measured with the FLIPR^384 plate reader. In each well, the change in the fluorescent signal as a function of time due to calcium entry into the cell is determined by calculating the difference between the fluorescent signal measured 7 seconds after calcium addition and the initial baseline fluorescence signal at time zero (t=0). This parameter is designated Upslope. The IC50 value is calculated as the concentration at which 50% of the Upslope is inhibited.

T1 sequence (Q96D31 whole entry): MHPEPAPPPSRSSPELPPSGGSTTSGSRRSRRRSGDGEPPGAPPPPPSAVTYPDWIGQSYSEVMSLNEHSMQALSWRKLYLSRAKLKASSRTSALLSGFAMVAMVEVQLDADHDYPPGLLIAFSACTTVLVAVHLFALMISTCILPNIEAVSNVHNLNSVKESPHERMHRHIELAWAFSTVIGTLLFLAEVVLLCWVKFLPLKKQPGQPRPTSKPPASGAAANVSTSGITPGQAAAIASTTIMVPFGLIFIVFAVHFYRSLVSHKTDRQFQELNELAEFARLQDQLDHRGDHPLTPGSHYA

Consider `Fc1cccc(F)c1CNc1ccc(-n2nc(C(F)(F)F)cc2C(F)(F)F)cn1` [Compound 100, 5-(3,5-bis(trifluoromethyl)-1H-pyrazol-1-yl)-N-(2,6-difluorobenzyl)pyridin-2-amine], for which the IC50 at Orai1/STIM1 and in the assay on RBL-2H3 cells was less than 600 nM each time.

With `Fc1cc(F)c(CNc2ccc(-n3nc(C(F)(F)F)cc3C(F)(F)F)cn2)c(F)c1` [Compound 102, 5-(3,5-bis(trifluoromethyl)-1H-pyrazol-1-yl)-N-(2,4,6-trifluorobenzyl)pyridin-2-amine], the IC50 on Orai1/STIM1 and in the assay with RBL-2H3 cells was less than 600 nM throughout.

On to `Cc1nc(C(F)(F)F)cn1-c1ccc(NCc2c(F)cccc2F)nc1` [Compound 106, N-(2,6-difluorobenzyl)-5-(2-methyl-4-(trifluoromethyl)-1H-imidazol-1-yl)pyridin-2-amine], for which the IC50 on Orai1/STIM1 and with RBL-2H3 cells was less than 600 nM throughout.

Regarding `Cc1nc(C(F)(F)F)cn1-c1ccc(NCc2c(F)cc(F)cc2F)nc1` [Compound 108, 5-(2-methyl-4-(trifluoromethyl)-1H-imidazol-1-yl)-N-(2,4,6-trifluorobenzyl)pyridin-2-amine], the IC50 on Orai1/STIM1 is 600 to 1200 nM; with RBL-2H3 cells, less than 600 nM.

For `Cc1nc(C(F)(F)F)cn1-c1ccc(NCc2c(F)cncc2F)nc1` [Compound 110, N-((3,5-difluoropyridin-4-yl)methyl)-5-(2-methyl-4-(trifluoromethyl)-1H-imidazol-1-yl)pyridin-2-amine], on Orai1/STIM1, the “Orai1/STIM1 (IC50, μmol)” value is given as “—”. For the same molecule, the IC50 with RBL-2H3 cells is greater than 1200 nM.

As to `Cc1c(F)cccc1CNc1ccc(-n2cc(C(F)(F)F)nc2C)cn1` [Compound 112, N-(3-fluoro-2-methylbenzyl)-5-(2-methyl-4-(trifluoromethyl)-1H-imidazol-1-yl)pyridin-2-amine], the “Orai1/STIM1 (IC50, μmol)” value at Orai1/STIM1 is “—”. Also, in the assay on RBL-2H3 cells, the IC50 was 600 to 1200 nM.

For `Cc1cc(C(F)(F)F)nn1-c1ccc(NCc2c(F)cccc2F)nc1` [Compound 116, N-(2,6-difluorobenzyl)-5-(5-methyl-3-(trifluoromethyl)-1H-pyrazol-1-yl)pyridin-2-amine], the IC50 at Orai1/STIM1 and in the assay with RBL-2H3 cells was less than 600 nM in each case.

Take `Cc1cc(C(F)(F)F)nn1-c1ccc(NCc2c(F)cc(F)cc2F)nc1` [Compound 118, 5-(5-methyl-3-(trifluoromethyl)-1H-pyrazol-1-yl)-N-(2,4,6-trifluorobenzyl)pyridin-2-amine]: the IC50 at Orai1/STIM1 and with RBL-2H3 cells was less than 600 nM in each case.

For the molecule `COc1cc(F)c(CNc2ccc(-n3nc(C(F)(F)F)cc3C)cn2)c(F)c1` [Compound 120, N-(2,6-difluoro-4-methoxybenzyl)-5-(5-methyl-3-(trifluoromethyl)-1H-pyrazol-1-yl)pyridin-2-amine], the IC50 at Orai1/STIM1 was 600 to 1200 nM; in the assay with RBL-2H3 cells it was less than 600 nM.

Regarding `Cc1c(F)cccc1CNc1ccc(-n2nc(C(F)(F)F)cc2C)cn1` [Compound 122, N-(3-fluoro-2-methylbenzyl)-5-(5-methyl-3-(trifluoromethyl)-1H-pyrazol-1-yl)pyridin-2-amine], on Orai1/STIM1, the “Orai1/STIM1 (IC50, μmol)” value is “—”. Moreover, in the assay with RBL-2H3 cells, the IC50 is less than 600 nM.

Consider `Cc1cc(C(F)(F)F)nn1-c1ccc(NCc2c(F)cncc2F)nc1` [Compound 124, N-((3,5-difluoropyridin-4-yl)methyl)-5-(5-methyl-3-(trifluoromethyl)-1H-pyrazol-1-yl)pyridin-2-amine], for which the IC50 at Orai1/STIM1 is 600 to 1200 nM; with RBL-2H3 cells, less than 600 nM.

As to `Fc1cccc(F)c1CNc1ncc(Oc2ccccc2C(F)(F)F)cn1` [Compound 126, N-(2,6-difluorobenzyl)-5-(2-(trifluoromethyl)phenoxy)pyrimidin-2-amine], the IC50 at Orai1/STIM1 and in the assay on RBL-2H3 cells was less than 600 nM throughout.

Consider `COc1cc(F)c(CNc2ncc(-c3cc4c(cc3C)OC(F)(F)O4)cn2)c(F)c1` [Compound 127, N-(2,6-difluoro-4-methoxybenzyl)-5-(2,2-difluoro-6-methylbenzo[d][1,3]dioxol-5-yl)pyrimidin-2-amine], for which the IC50 at Orai1/STIM1 and in the assay with RBL-2H3 cells was less than 600 nM each time.

With `COc1cc(C)c(-c2cnc(NCc3c(F)cccc3F)nc2)cn1` [Compound 128, N-(2,6-difluorobenzyl)-5-(6-methoxy-4-methylpyridin-3-yl)pyrimidin-2-amine], the IC50 at Orai1/STIM1 and in the assay with RBL-2H3 cells was less than 600 nM throughout.

As to `Cc1cc(Cl)ncc1-c1cnc(NCc2c(F)cc(Cl)cc2F)nc1` [Compound 129, N-(4-chloro-2,6-difluorobenzyl)-5-(6-chloro-4-methylpyridin-3-yl)pyrimidin-2-amine], the IC50 on Orai1/STIM1 and in the assay on RBL-2H3 cells was less than 600 nM throughout.

`Fc1cc(F)c(CNc2ccc(Oc3ccccc3C(F)(F)F)cn2)c(F)c1` [Compound 134]: the IC50 on Orai1/STIM1 and with RBL-2H3 cells was less than 600 nM each time.

With `Fc1cccc(F)c1CNc1ccc(Oc2ccccc2C(F)(F)F)cn1` [Compound 135], the IC50 on Orai1/STIM1 and in the assay on RBL-2H3 cells was less than 600 nM in each case.

As for `Cn1nc(C(F)(F)F)cc1-c1ccc(NCc2ccccc2F)nc1N` [Compound 143, N^2-(2-fluorobenzyl)-5-(1-methyl-3-(trifluoromethyl)-1H-pyrazol-5-yl)pyridine-2,6-diamine], the IC50 on Orai1/STIM1 and in the assay on RBL-2H3 cells was less than 600 nM each time.
